The record followed here is publication PMC6478669, “Engineered Orthogonal Quorum Sensing Systems for Synthetic Gene Regulation in Escherichia coli” (Frontiers in Bioengineering and Biotechnology, 2019).

Assay in all cases: GFP reporter induction, plate reader
Common to all, as to assay type: cell-based

Assay [1] has as its target T1, LuxR (Aliivibrio fischeri, UniProt P12746).
T1 construct: Receiver plasmid in E. coli BL21, regulator cassette upstream of pLux-GFP; same synthetic system as Canton et al. 2008; acts as dimer
T1 sequence (P12746 1-250): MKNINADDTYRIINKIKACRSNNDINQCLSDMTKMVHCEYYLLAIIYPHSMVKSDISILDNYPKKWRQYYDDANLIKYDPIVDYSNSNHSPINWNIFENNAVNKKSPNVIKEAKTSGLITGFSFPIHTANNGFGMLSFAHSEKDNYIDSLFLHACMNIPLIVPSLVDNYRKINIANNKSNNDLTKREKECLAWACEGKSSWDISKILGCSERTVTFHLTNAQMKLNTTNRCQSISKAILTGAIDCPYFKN
The conditions noted are these: E. coli BL21 Receiver cells, LB, 37 °C, half-maximal max rate of GFP/OD600.

The next assay deals with T2, AubR (uncultured bacterium, UniProt K0J3R4).
T2 construct: constitutively expressed from Receiver plasmid (pSB1A3) in E. coli BL21 with hybrid pAub promoter-GFP reporter; acts as dimer
The settings on record: read-out: Kmapprox.

In another assay the target is T3, LasR (Pseudomonas aeruginosa, UniProt P25084).
T3 construct: constitutively expressed from Receiver plasmid (pSB1A3) in E. coli BL21 with hybrid pLas promoter-GFP reporter; acts as dimer
The settings on record: E. coli BL21 Receiver cells, LB, 37 °C, half-maximal max rate of GFP/OD600.

Assay [2] addresses T1, LuxR. The conditions noted are these: E. coli BL21 Receiver cells, LB, 37 °C, half-maximal max rate of GFP/OD600; unreliable (little to no response without oxo group).

Molecules are shown by their SMILES.

T2 sequence (K0J3R4 1-267): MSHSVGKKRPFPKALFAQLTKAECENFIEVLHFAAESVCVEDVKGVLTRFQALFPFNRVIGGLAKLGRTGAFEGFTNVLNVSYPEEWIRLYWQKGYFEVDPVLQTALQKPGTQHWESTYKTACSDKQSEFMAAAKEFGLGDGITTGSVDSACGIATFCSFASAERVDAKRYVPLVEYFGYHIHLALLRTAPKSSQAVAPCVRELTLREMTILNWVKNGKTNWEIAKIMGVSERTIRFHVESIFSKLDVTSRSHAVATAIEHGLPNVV
T3 sequence (P25084 whole entry): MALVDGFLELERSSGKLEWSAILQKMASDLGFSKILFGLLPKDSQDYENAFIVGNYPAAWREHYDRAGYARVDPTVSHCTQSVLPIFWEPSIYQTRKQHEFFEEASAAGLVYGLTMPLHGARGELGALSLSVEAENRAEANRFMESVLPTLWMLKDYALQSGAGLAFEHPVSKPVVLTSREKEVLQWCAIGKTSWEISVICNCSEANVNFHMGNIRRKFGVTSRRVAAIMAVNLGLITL

For `CCCCCC(=O)CC(=O)N[C@H]1CCOC1=O` [3-oxo-C8], the Kmapprox entry on LuxR [1] is “~ between 1.00E-7 and 1.00E-8 M”.
`CCCCCCCCCC(=O)CC(=O)N[C@H]1CCOC1=O` [3-oxo-C12 HSL]: the EC50 on AubR was found to be 0.1 µM.
Take `CCCCCCCCCCCC(=O)CC(=O)N[C@H]1CCOC1=O` [3-oxo-C14 HSL]: the Kmapprox entry is “~ between 1.00E-8 and 1.00E-7 M” at LuxR [1]; “~ between 1.00E-9 and 1.00E-8 M” at LasR.
Turning to `CCCC(=O)N[C@H]1CCOC1=O` [C4-HSL], at LuxR [2], the Kmapprox is listed as ~ 1.0E-6–1.0E-5 M.
As to `CCCCCCCCCCCC(=O)N[C@H]1CCOC1=O` [C12 HSL], the EC50 on AubR was 0.005 µM.
